The target in assay [1] is T1, Jak2 (a.a. 828-1132) (Homo sapiens, UniProt O60674).
T1 construct: Jak2 (a.a. 828-1132); His tag (N); made in house; host or cells: insect cells (baculovirus)
Nature of the assay: In vitro JAK kinase assay (HTRF, phosphorylation of a biotinylated peptide), JAK2, reported as JAK2/JAK1 ratio. Type of assay: biochemical. On the technique in general: In TR-FRET formats the signal depends on donor and acceptor labels being close together.

Assay [2] addresses T2, human JAK1 (a.a. 837-1142) (Homo sapiens, UniProt P23458).
T2 construct: human JAK1 (a.a. 837-1142); His tag (N); made in house; host or cells: insect cells (baculovirus)
Nature of the assay: In vitro JAK kinase assay (HTRF, phosphorylation of a biotinylated peptide), JAK1. The assay is classed as biochemical. Summed up:
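His-tagged catalytic domains (JAK1 a.a. 837-1142, JAK2 a.a. 828-1132) from insect cells phosphorylate 500 nM biotinylated peptide in 50 mM Tris pH 7.8, 100 mM NaCl, 5 mM DTT; ATP at Km (90 μM JAK1, 30 μM JAK2) or 1 mM, as indicated. 1 h at RT; EDTA stop, HTRF readout; IC50s.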

[3] abbreviates: Assay Conditions Km (ATP 90 μM for Jak1, 30 μM for Jak2).
The mark [4] stands for this setting: Assay Conditions Km (ATP 90 μM for Jak1).

pIC50: −log10 of the molar value. Where a name gives a salt, the structure may show the parent alone.

The text below walks through data of US8716303B2, “N-(hetero)aryl-pyrrolidine derivatives of pyrazol-4-yl-pyrrolo[2,3-d]pyrimidines and pyrrol-3-yl-pyrrolo[2,3-d]pyrimidines as janus kinase inhibitors” (Incyte Corporation, priority 2009, dated 2014).

T2 sequence (P23458 849-1154): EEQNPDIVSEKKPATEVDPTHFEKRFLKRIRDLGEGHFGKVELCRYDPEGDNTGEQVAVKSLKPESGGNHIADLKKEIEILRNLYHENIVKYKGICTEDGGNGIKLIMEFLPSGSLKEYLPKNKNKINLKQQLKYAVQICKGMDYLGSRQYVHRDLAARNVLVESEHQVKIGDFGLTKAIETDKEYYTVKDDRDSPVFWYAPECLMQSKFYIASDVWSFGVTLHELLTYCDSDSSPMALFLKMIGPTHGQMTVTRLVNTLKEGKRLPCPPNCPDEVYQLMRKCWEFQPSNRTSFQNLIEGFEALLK
T1 sequence (O60674 828-1132): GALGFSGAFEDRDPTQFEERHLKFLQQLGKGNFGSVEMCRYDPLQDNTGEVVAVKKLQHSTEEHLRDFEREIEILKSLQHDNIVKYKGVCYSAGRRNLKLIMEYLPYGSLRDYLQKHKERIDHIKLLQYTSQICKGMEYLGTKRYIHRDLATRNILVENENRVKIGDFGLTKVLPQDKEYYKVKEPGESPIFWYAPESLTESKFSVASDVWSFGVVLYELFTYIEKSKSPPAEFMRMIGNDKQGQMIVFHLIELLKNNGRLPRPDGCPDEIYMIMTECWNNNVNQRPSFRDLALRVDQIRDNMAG

`N#CCC(C1CCN(c2ccnc(Cl)n2)C1)n1cc(-c2ncnc3[nH]ccc23)cn1` (single isomer, unassigned) [3, Step 2a]: the “JAK2/JAK1 IC50 ratio” value in assay [1] (setting [3]) stood at 2.3. In addition, the pIC50 (as a rule, −log10 of the IC50, conventionally taken in molar units) in assay [2] (setting [4]) is over 7.30.
Consider `N#CC[C@@H]([C@H]1CCN(c2ncncc2C#N)C1)n1cc(-c2ncnc3[nH]ccc23)cn1` [Example 84, 4-((S)-3-((S)-1-(4-(7H-pyrrolo[2,3-d]pyrimidin-4-yl)-1H-pyrazol-1-yl)-2-cyanoethyl)pyrrolidin-1-yl)pyrimidine-5-carbonitrile trifluoroacetate], for which, in assay [1] (Assay Conditions 1 mM ATP), the “JAK2/JAK1 IC50 ratio” value is recorded as 11.5. The compound further gave a pIC50 in assay [2] (Assay Conditions 1 mM ATP) of over 7.30.
As to `N#CC[C@@H]([C@H]1CCN(c2nc(Cl)c(CO)cc2F)C1)n1cc(-c2ncnc3[nH]ccc23)cn1` [Example 90, (3S)-3-{(3S)-1-[6-chloro-3-fluoro-5-(hydroxymethyl)pyridin-2-yl]pyrrolidin-3-yl}-3-[4-(7H-pyrrolo[2,3-d]pyrimidin-4-yl)-1H-pyrazol-1-yl]propanenitrile trifluoroacetate], the “JAK2/JAK1 IC50 ratio” value in assay [1] (Assay Conditions 1 mM ATP) was found to be 4.3. In assay [2] (Assay Conditions 1 mM ATP), this compound had a negative-log IC50 (pIC50) of over 7.30.
The corresponding values for `N#CC[C@@H]([C@H]1CCN(c2cccc(Br)c2C#N)C1)n1cc(-c2ncnc3[nH]ccc23)cn1` [Example 57, 2-bromo-6-((3S)-3-{(1S)-2-cyano-1-[4-(7H-pyrrolo[2,3-d]pyrimidin-4-yl)-1H-pyrazol-1-yl]ethyl}pyrrolidin-1-yl)benzonitrile trifluoroacetate salt] are 37 and over 7.30.
For `N#Cc1ccnc(N2CC[C@H](C(CF)n3cc(-c4ncnc5[nH]ccc45)cn3)C2)c1C#N` (stereo partly drawn) [Example 120, 2-((3S)-3-(1-(4-(7H-pyrrolo[2,3-d]pyrimidin-4-yl)-1H-pyrazol-1-yl)-2-fluoroethyl)pyrrolidin-1-yl)pyridine-3,4-dicarbonitrile trifluoroacetate], the “JAK2/JAK1 IC50 ratio” value in assay [1] (Assay Conditions 1 mM ATP) came out at 3.5. This compound had a pIC50 in assay [2] (Assay Conditions 1 mM ATP) of over 7.30.
The corresponding values for `N#CC[C@@H]([C@H]1CCN(c2cccc(C(F)(F)F)c2C#N)C1)n1cc(-c2ncnc3[nH]ccc23)cn1` [Example 56, 2-((3S)-3-{(1S)-2-cyano-1-[4-(7H-pyrrolo[2,3-d]pyrimidin-4-yl)-1H-pyrazol-1-yl]ethyl}pyrrolidin-1-yl)-6-(trifluoromethyl)benzonitrile trifluoroacetate salt] are over 10 and over 7.30.
Take `N#CCC(C1CCN(c2nc3cccnc3o2)C1)n1ccc(-c2ncnc3[nH]ccc23)c1` (single isomer, unassigned) [32, Step 2b (racemate)]: the “JAK2/JAK1 IC50 ratio” value in assay [1] (setting [3]) was found to be 0.2. The compound also gave a pIC50 in assay [2] (setting [4]) of 7.00 to 7.30.
Consider `N#CCC(C1CCN(c2cccc(Cl)[n+]2[O-])C1)n1cc(-c2ncnc3[nH]ccc23)cn1` (single isomer, unassigned) [Example 45, 3-[1-(6-chloro-1-oxidopyridin-2-yl)pyrrolidin-3-yl]-3-[4-(7H-pyrrolo[2,3-d]pyrimidin-4-yl)-1H-pyrazol-1-yl]propanenitrile], for which the “JAK2/JAK1 IC50 ratio” value in assay [1] (setting [3]) was 7.4. This compound had a pIC50 in assay [2] (setting [4]) of over 7.30.
Regarding `N#CCC(C1CCN(c2ncc3cc[nH]c3n2)C1)n1cc(-c2ncnc3[nH]ccc23)cn1` (single isomer, unassigned) [Example 16, 3-[4-(7H-pyrrolo[2,3-d]pyrimidin-4-yl)-1H-pyrazol-1-yl]-3-[1-(7H-pyrrolo[2,3-d]pyrimidin-2-yl)pyrrolidin-3-yl]propanenitrile], the “JAK2/JAK1 IC50 ratio” value in assay [1] (Assay Conditions 1 mM ATP) is reported as 11.4. Further, the pIC50 in assay [2] (Assay Conditions 1 mM ATP) was over 7.30.
